# Data published in patent US5541175A, “Cephalosporin antibiotics” (Lucky, Ltd., priority 1993, dated 1996).
# Legend:
# Test in all cases: Minimum inhibitory concentration (agar 2-fold dilution)
# Type in all cases: cell-based
# [1] = tested on: Escherichia coli TEM3 3455E; conditions: TEM33455E, 20 h, read-out: Minimum Inhibitory Concentration
# Protocol: (§1) The minimum inhibitory concentration was determined by diluting the test compounds according to 2-fold dilution, suspending them in Muller-Hinton agar medium, inoculating 2 μl of the suspension containing the test strains having 10^7 CFU (Colony Forming Unit) per 1 ml into the medium and then culturing the test strains at 37° C. for 20 hours.
# [2] = tested on: Salmonella typhimurium 14028A; conditions: Salmonella enterica; S. typhimurium 14028A; Muller-Hinton agar, 37° C., 20 hours; read-out: Minimum Inhibitory Concentration
# Protocol: as §1
# [3] = tested on: Escherichia coli TEM1 1193E; conditions: TEM11193E, 20 h, read-out: Minimum Inhibitory Concentration
# Protocol: as §1
# [4] = tested on: Pseudomonas aeruginosa 6065; conditions: Pseudomonas aeruginosa; P. aeruginosa 6065; Muller-Hinton agar, 37° C., 20 hours; read-out: Minimum Inhibitory Concentration
# Protocol: as §1
# [5] = tested on: Klebsiella aerogenes K1 + 1082E; conditions: 20 h, read-out: Minimum Inhibitory Concentration
# Protocol: as §1
# [6] = tested on: Escherichia coli TEM5 3739E; conditions: TEM53739E, 20 h, read-out: Minimum Inhibitory Concentration
# Protocol: as §1
# [7] = tested on: Enterobacter cloacae P99; conditions: P99, 20 h, read-out: Minimum Inhibitory Concentration
# Protocol: as §1
# [8] = tested on: Escherichia coli 10536; conditions: Escherichia coli; E. coli 10536; Muller-Hinton agar, 37° C., 20 hours; read-out: Minimum Inhibitory Concentration
# Protocol: as §1
# [9] = tested on: Staphylococcus aureus 6538P; conditions: S. aureus 6538P, Muller-Hinton agar, 37° C., 20 hours, read-out: Minimum Inhibitory Concentration
# Protocol: as §1
# [10] = tested on: Escherichia coli 851E; conditions: E. coli 851E, Muller-Hinton agar, 37° C., 20 hours
# Protocol: as §1
# [11] = tested on: Staphylococcus aureus 77; conditions: Staphylococcus aureus; S. aureus 77; Muller-Hinton agar, 37° C., 20 hours; read-out: Minimum Inhibitory Concentration
# Protocol: as §1
# [12] = tested on: Staphylococcus aureus epidermidis 887E; conditions: S. aureus epidermidis 887E, Muller-Hinton agar, 37° C., 20 hours, read-out: Minimum Inhibitory Concentration
# Protocol: as §1
# [13] = tested on: Staphylococcus aureus giorgio; conditions: S. aureus giorgio, Muller-Hinton agar, 37° C., 20 hours, read-out: Minimum Inhibitory Concentration
# Protocol: as §1
# [14] = tested on: Escherichia coli TEM7 3457E; conditions: TEM73457E, 20 h, read-out: Minimum Inhibitory Concentration
# Protocol: as §1
# [15] = tested on: Streptococcus faecalis 29212A; conditions: Enterococcus faecalis; S. faecalis 29212A; Muller-Hinton agar, 37° C., 20 hours; read-out: Minimum Inhibitory Concentration
# Protocol: as §1
# [16] = tested on: Pseudomonas aeruginosa 1912E; conditions: P. aeruginosa 1912E, Muller-Hinton agar, 37° C., 20 hours, read-out: Minimum Inhibitory Concentration
# Protocol: as §1
# [17] = tested on: Acinetobacter calcoaceticus 15473A; conditions: A. calcoaceticus 15473A, Muller-Hinton agar, 37° C., 20 hours, read-out: Minimum Inhibitory Concentration
# Protocol: as §1
# [18] = tested on: Citrobacter diversus 2046E; conditions: Citrobacter koseri; C. diversus 2046E; Muller-Hinton agar, 37° C., 20 hours; read-out: Minimum Inhibitory Concentration
# Protocol: as §1
# [19] = tested on: Staphylococcus aureus 241; conditions: Staphylococcus aureus; S. aureus 241; Muller-Hinton agar, 37° C., 20 hours; read-out: Minimum Inhibitory Concentration
# Protocol: as §1
# [20] = tested on: Enterobacter cloacae IND + VE 1194E; conditions: E. cloacae IND + VE 1194E, Muller-Hinton agar, 37° C., 20 hours, read-out: Minimum Inhibitory Concentration
# Protocol: as §1
# [21] = tested on: Escherichia coli TEM9 2639E; conditions: TEM92639E, 20 h, read-out: Minimum Inhibitory Concentration
# Protocol: as §1
# [22] = tested on: Escherichia coli 3190Y; conditions: E. coli 3190Y, Muller-Hinton agar, 37° C., 20 hours, read-out: Minimum Inhibitory Concentration
# Protocol: as §1
# [23] = tested on: Klebsiella aerogenes SHV-1 1976E; conditions: SHV11976E, K. aerogenes SHV-1 1976E, Muller-Hinton agar, 37° C., 20 hours
# Protocol: as §1
# [24] = tested on: Pseudomonas aeruginosa 10145; conditions: Pseudomonas aeruginosa; P. aeruginosa 10145; Muller-Hinton agar, 37° C., 20 hours; read-out: Minimum Inhibitory Concentration
# Protocol: as §1
# [25] = tested on: Proteus vulgaris 6059A; conditions: P. vulgaris 6059A, Muller-Hinton agar, 37° C., 20 hours, read-out: Minimum Inhibitory Concentration
# Protocol: as §1
# [26] = tested on: Serratia marcescens 1826E; conditions: S. marcescens 1826E, Muller-Hinton agar, 37° C., 20 hours, read-out: Minimum Inhibitory Concentration
# Protocol: as §1
SMILES,MIC [1] [µg/mL],MIC [2] [µg/mL],MIC [3] [µg/mL],MIC [4] [µg/mL],MIC [5] [µg/mL],MIC [6] [µg/mL],MIC [7] [µg/mL],MIC [8] [µg/mL],MIC [9] [µg/mL],MIC [10] [µg/mL],MIC [11] [µg/mL],MIC [12] [µg/mL],MIC [13] [µg/mL],MIC [14] [µg/mL],MIC [15] [µg/mL],MIC [16] [µg/mL],MIC [17] [µg/mL],MIC [18] [µg/mL],MIC [19] [µg/mL],MIC [20] [µg/mL],other results
"Cc1c(N)nc[n+](C/C=C/C2=C(C(=O)[O-])N3C(=O)[C@@H](NC(=O)/C(=N\O[C@@H](C(=O)O)c4ccc(O)c(O)c4)c4csc(N)n4)[C@H]3SC2)c1N [Compound I-4b, 7-[(Z)-2-(2-aminothiazol-4-yl)-2-(α-carboxy-3,4-dihydroxybenzyloxyimino)acetamido]-3-[(E)-3-(4,6-diamino-5-methylpyrimidinium-1-yl)-1-propen-1-yl]-3-cephem-4-carboxylate]",0.5,0.13,0.25,16,2,1,16,0.13,0.5,0.13,2,32,0.5,0.25,8,8,4,4,128,8,MIC [21]: 1 µg/mL; MIC [22]: 0.13 µg/mL; MIC [23]: 1 µg/mL; MIC [24]: 4 µg/mL; MIC [25]: 1 µg/mL; MIC [26]: 2 µg/mL
"Nc1nc(/C(=N/O[C@@H](C(=O)O)c2ccc(O)c(O)c2)C(=O)N[C@@H]2C(=O)N3C(C(=O)[O-])=C(/C=C/C[n+]4cnc(N)c5c4CCC5)CS[C@H]23)cs1 [Compound I-3b, 7-[(Z)-2-(2-aminothiazol-4-yl)-2-(α-carboxy-3,4-dihydroxybenzyloxyimino)acetamido]-3-[(E)-3-(4-amino-5,6-cyclopentanopyrimidinium-1-yl)-1-propen-1-yl]-3-cephem-4-carboxylate]",0.5,0.13,0.25,64,1,2,64,0.13,0.5,0.25,4,64,0.5,0.5,8,8,4,4,> 128,32,MIC [21]: 2 µg/mL; MIC [22]: 0.25 µg/mL; MIC [23]: 1 µg/mL; MIC [24]: 8 µg/mL; MIC [25]: 1 µg/mL; MIC [26]: 4 µg/mL
